# System: cataracts in rats
# Assay: Prevention or retardation of cataracts in galactose-fed rats
# Type: in vivo, rat
# Conditions: for % of Total Eyes, N (nuclear cataract) / % of Total Eyes, S (snowflake) / Number of Eyes Observed, + (vacuole) / Number of Eyes Observed, - (Normal) / Number of Eyes Observed, N (nuclear cataract) / Number of Eyes Observed, S (snowflake) / Number of Eyes Observed, ± / % of Total Eyes, + (vacuole) / % of Total Eyes, - (Normal): 30% galactose diet, A,C,E 0.0025%, B,D 0.01%
# How it was run: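 Twelve rats per treatment, after two days on chow, were fed compound/diet mixtures ad libitum from Study Day 1 for thirty days; the 0.01% level was designed for 20 mg/kg/day. Cataracts were scored per eye using ophthalmoscope and/or penlight.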
substance,measurement,setting,value
"dl-spiro-(6-methylthio-chroman-4,4'-imidazolidine)-2',5'-dione","% of Total Eyes, N (nuclear cataract)",Study Day 14,0%
same,"% of Total Eyes, S (snowflake)",Study Day 14,58.4%
same,"Number of Eyes Observed, + (vacuole)",Study Day 14,10 eyes
same,"Number of Eyes Observed, - (Normal)",Study Day 14,0 eyes
same,"Number of Eyes Observed, N (nuclear cataract)",Study Day 14,0 eyes
same,"Number of Eyes Observed, S (snowflake)",Study Day 14,14 eyes
same,"Number of Eyes Observed, ±",Study Day 14,0 eyes
same,"% of Total Eyes, + (vacuole)",Study Day 16,37.5%
same,"% of Total Eyes, - (Normal)",Study Day 16,0%
same,"% of Total Eyes, N (nuclear cataract)",Study Day 16,0%
same,"% of Total Eyes, S (snowflake)",Study Day 16,62.5%
same,"Number of Eyes Observed, + (vacuole)",Study Day 16,9 eyes
same,"Number of Eyes Observed, - (Normal)",Study Day 16,0 eyes
same,"Number of Eyes Observed, N (nuclear cataract)",Study Day 16,0 eyes
same,"Number of Eyes Observed, S (snowflake)",Study Day 16,15 eyes
same,"Number of Eyes Observed, ±",Study Day 16,0 eyes
same,"% of Total Eyes, + (vacuole)",Study Day 18,25.0%
same,"% of Total Eyes, - (Normal)",Study Day 18,0%
same,"% of Total Eyes, N (nuclear cataract)",Study Day 18,0%
same,"% of Total Eyes, S (snowflake)",Study Day 18,75.0%
same,"Number of Eyes Observed, + (vacuole)",Study Day 18,6 eyes
same,"Number of Eyes Observed, - (Normal)",Study Day 18,0 eyes
same,"Number of Eyes Observed, N (nuclear cataract)",Study Day 18,0 eyes
same,"Number of Eyes Observed, S (snowflake)",Study Day 18,0 eyes
same,"Number of Eyes Observed, ±",Study Day 18,0 eyes
same,"% of Total Eyes, + (vacuole)",Study Day 20,20.8%
same,"% of Total Eyes, - (Normal)",Study Day 20,0%
same,"% of Total Eyes, N (nuclear cataract)",Study Day 20,0%
same,"% of Total Eyes, S (snowflake)",Study Day 20,79.2%
same,"Number of Eyes Observed, + (vacuole)",Study Day 20,5 eyes
same,"Number of Eyes Observed, - (Normal)",Study Day 20,0 eyes
same,"Number of Eyes Observed, N (nuclear cataract)",Study Day 20,0 eyes
same,"Number of Eyes Observed, S (snowflake)",Study Day 20,19 eyes
same,"Number of Eyes Observed, ±",Study Day 20,0 eyes
same,"% of Total Eyes, + (vacuole)",Study Day 22,8.3%
same,"% of Total Eyes, - (Normal)",Study Day 22,0%
same,"% of Total Eyes, N (nuclear cataract)",Study Day 22,4.2%
same,"% of Total Eyes, S (snowflake)",Study Day 22,87.5%
same,"Number of Eyes Observed, + (vacuole)",Study Day 22,2 eyes
same,"Number of Eyes Observed, - (Normal)",Study Day 22,0 eyes
same,"Number of Eyes Observed, N (nuclear cataract)",Study Day 22,1 eyes
same,"Number of Eyes Observed, S (snowflake)",Study Day 22,21 eyes
same,"Number of Eyes Observed, ±",Study Day 22,0 eyes
same,"% of Total Eyes, + (vacuole)",Study Day 24,4.2%
same,"% of Total Eyes, - (Normal)",Study Day 24,0%
same,"% of Total Eyes, N (nuclear cataract)",Study Day 24,4.2%
same,"% of Total Eyes, S (snowflake)",Study Day 24,91.7%
same,"Number of Eyes Observed, + (vacuole)",Study Day 24,1 eyes
same,"Number of Eyes Observed, - (Normal)",Study Day 24,0 eyes
same,"Number of Eyes Observed, N (nuclear cataract)",Study Day 24,1 eyes
same,"Number of Eyes Observed, S (snowflake)",Study Day 24,22 eyes
same,"Number of Eyes Observed, ±",Study Day 24,0 eyes
same,"% of Total Eyes, + (vacuole)",Study Day 26,0%
same,"% of Total Eyes, - (Normal)",Study Day 26,0%
same,"% of Total Eyes, N (nuclear cataract)",Study Day 26,4.2%
same,"% of Total Eyes, S (snowflake)",Study Day 26,95.8%
same,"Number of Eyes Observed, + (vacuole)",Study Day 26,0 eyes
same,"Number of Eyes Observed, - (Normal)",Study Day 26,0 eyes
same,"Number of Eyes Observed, N (nuclear cataract)",Study Day 26,1 eyes
same,"Number of Eyes Observed, S (snowflake)",Study Day 26,23 eyes
same,"Number of Eyes Observed, ±",Study Day 26,0 eyes
same,"% of Total Eyes, + (vacuole)",Study Day 28,0%
same,"% of Total Eyes, - (Normal)",Study Day 28,0%
same,"% of Total Eyes, N (nuclear cataract)",Study Day 28,12.5%
same,"% of Total Eyes, S (snowflake)",Study Day 28,87.5%
same,"Number of Eyes Observed, + (vacuole)",Study Day 28,0 eyes
same,"Number of Eyes Observed, - (Normal)",Study Day 28,0 eyes
same,"Number of Eyes Observed, N (nuclear cataract)",Study Day 28,3 eyes
same,"Number of Eyes Observed, S (snowflake)",Study Day 28,21 eyes
same,"Number of Eyes Observed, ±",Study Day 28,0 eyes
same,"% of Total Eyes, + (vacuole)",Study Day 30,0%
same,"% of Total Eyes, - (Normal)",Study Day 30,0%
same,"% of Total Eyes, N (nuclear cataract)",Study Day 30,16.7%
same,"% of Total Eyes, S (snowflake)",Study Day 30,83.3%
same,"Number of Eyes Observed, + (vacuole)",Study Day 30,0 eyes
same,"Number of Eyes Observed, - (Normal)",Study Day 30,0 eyes
same,"Number of Eyes Observed, N (nuclear cataract)",Study Day 30,4 eyes
same,"Number of Eyes Observed, S (snowflake)",Study Day 30,20 eyes
same,"Number of Eyes Observed, ±",Study Day 30,0 eyes
same,inhibitory capacity relative to diastereomeric mixture of 6-sulfinyl derivative,fold greater,1.5
same,"time to vacuole formation, 0.0025% methylthio versus 0.01% sulfinyl","methylthio 0.0025%, sulfinyl 0.01% in diet",not different from each other

# Reference: patent publication US4464385A, “Treatment of diabetic complications with hydantoins” (Alcon Laboratories, Inc., priority 1982, dated 1984)
